Literature values, collected in patent US20240277756A1 (NACAMED AS, priority 2021, published 2024).

How the values were obtained:
[1] = oral
[2] = calculated log P values from Foye's Principles of Medicinal Chemistry, Seventh Edition (2011)

SMILES | absolute bioavailability (in words) [1] | log P [2]
C[C@@H]1[C@H](O)[C@@H](C)/C=C/C=C/C=C/C=C/C=C/C=C/C=C/[C@H](O[C@@H]2O[C@H](C)[C@@H](O)[C@H](N)[C@@H]2O)C[C@@H]2O[C@](O)(C[C@@H](O)C[C@@H](O)[C@H](O)CC[C@@H](O)C[C@@H](O)CC(=O)O[C@H]1C)C[C@H](O)[C@H]2C(=O)O [amphotericin B] | very low | 
CCCc1nc(C)c2c(=O)nc(-c3cc(S(=O)(=O)N4CCN(CC)CC4)ccc3OCC)[nH]n12 [valdanafil] |  | 3.64
